Legend:
[1] = biological target: T1, cloned human 5-HT2A receptor (Homo sapiens, UniProt P28223); assay: Human 5-HT2A receptor binding assay ([3H]ketanserin, CHO-K1 membranes); details: displacement of [3H]ketanserin (1 nM), read-out: 5-HT2A pKi (converted)
T1 construct: purchased Euroscreen; host or cells: CHO-K1 cells
Method: (§1) The binding affinity of ligands for human 5-HT2A and 5-HT2C receptors was determined using the following assay.
Membrane preparations from CHO-K1 cells expressing the cloned human 5-HT2A receptor were obtained (Euroscreen). The membranes were thawed rapidly and diluted in assay buffer containing Tris-HCl (50 mM, pH 7.7). The membranes were resuspended by homogenisation, prior to adding 15 μg of membranes to assay wells containing [3H] ketanserin (1 nM), assay buffer (50 mM Tris at pH 7.4) containing pargyline (10 μM), and test compounds (1×10^−10 to 1×10^−4M). Non specific binding was determined in the presence of 100 μM mianserin. After 15 minutes incubation at 37° C., the assay mixture was filtered through a combination of GF-C and GF-B filters, pre-soaked in 0.05% Brij, using a Brandel cell harvester, and were washed three times using ice cold Tris-HCl buffer (50 mM). Radioactivity retained on the filters was determined by liquid scintillation counting. For each test compound, the concentration that inhibited binding of [^3H]ketanserin by 50% was determined using curve fitting software (Prism). Kd values (concentration of ketanserin required to occupy 50% of the receptor binding sites at equlibrium) determined from saturation binding studies were then used to calculate inhibition dissociation constants (Ki) using the following equation: […]

[2] = biological target: T2, human cloned 5-HT2B receptors (Homo sapiens, UniProt P41595); assay: Human cloned 5-HT2B receptor binding assay ([3H]LSD, CHO-K1 membranes); details: displacement of [3H]LSD (1 nM), read-out: 5-HT2B pKi (converted)
T2 construct: expressed in transfected cells; host or cells: CHO-K1 cells
T2 sequence (P41595 whole entry): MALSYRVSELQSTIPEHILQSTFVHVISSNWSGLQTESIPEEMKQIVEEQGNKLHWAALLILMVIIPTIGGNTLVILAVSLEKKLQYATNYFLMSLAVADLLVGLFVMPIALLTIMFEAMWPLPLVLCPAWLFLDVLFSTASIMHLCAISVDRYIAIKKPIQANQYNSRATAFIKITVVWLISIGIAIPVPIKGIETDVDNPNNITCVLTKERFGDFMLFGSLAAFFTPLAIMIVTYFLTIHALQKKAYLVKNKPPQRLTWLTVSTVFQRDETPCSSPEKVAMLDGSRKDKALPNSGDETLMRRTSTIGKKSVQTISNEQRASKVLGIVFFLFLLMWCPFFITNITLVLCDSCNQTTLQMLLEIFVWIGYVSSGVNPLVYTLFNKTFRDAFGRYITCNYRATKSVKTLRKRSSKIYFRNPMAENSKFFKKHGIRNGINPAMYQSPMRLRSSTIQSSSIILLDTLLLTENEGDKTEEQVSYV
Method: The binding affinity of the compounds for human cloned 5-HT2B receptors was determined using the following assay.
CHO-K1 cells expressing cloned 5-HT2B receptor were maintained in Ultra-CHO medium containing 400 μg/ml of G418, 100 U/ml penicillin, 100 μg/ml streptomycin, 2.5 μg/ml fungizone and 1% foetal bovine serum, in 95/5% O2/CO2 at 37° C. The cells were harvested using 0.25% trypsin and were centrifuged at 800 rpm for 8 minutes. The cells were homogenised in 50 mM HEPES buffer containing 1 mM disodium EDTA and 1 mM PMSF at pH 7.4, using a Dounce homogeniser (20 strokes). The homogenate was centrifuged at 2280 rpm (1000 g) and 4° C. for 10 minutes, after which the supernatant was removed by decanting. The pellet was re-homogenised as above, and the resulting supernatant removed and combined with that already obtained. The supernatant solution was then centrifuged at 18300 rpm (40000 g) for 10 minutes at 4° C. using a Sorvall centrifuge. The supernatant was removed, and the pellet was re-suspended in 50 mM buffer at pH 7.4 using a Ultra-turrax T25 Polytron, before centrifugation again at 40000 g as above. This wash procedure was repeated, after which the membrane preparation was stored at a concentration of 1 mg/ml at −80° C. until use.
The membranes were thawed rapidly and diluted in assay buffer containing Tris-HCl (50 mM, pH 7.4), ascorbic acid (0.1%) and calcium chloride (4 mM). The membranes were homogenised to resuspend them, prior to adding 10 or 15 μg of membranes to assay wells containing [^3H]LSD (1 nM), assay buffer (50 mM Tris, 4 mM calcium chloride and 0.1% ascorbic acid) containing pargyline (10 μM), and the test compounds (1×10^−10 to 1×10^−4M). Non specific binding was determined in the presence of 100 μM 5-HT. After 30 minutes incubation at 37° C., the assay mixture was filtered through a combination of GF-C and GF-B filters, pre-soaked in 1% polyethyleneimine, using a Brandel cell harvester, and were washed three times using 50 mM Tris-HCl. Radioactivity retained on the filters was determined by liquid scintillation counting. For each test compound, the concentration that inhibited binding of [3H]LSD by 50% was determined using curve fitting software (Prism). Kd values (concentration of LSD required to occupy 50% of the receptor binding sites at equilibrium) determined from saturation binding studies were then used to calculate inhibition dissociation constants (Ki) using the following equation: […]
This approach follows that set out in Kenakin, T.P. Pharmacologic analysis of drug-receptor interaction. Raven Press, New York, 2nd Edition.

[3] = biological target: T3, cloned human 5-HT2C receptor (Homo sapiens, UniProt P28335); assay: Human 5-HT2C receptor binding assay ([3H]mesulergine, CHO-K1 membranes); details: displacement of [3H]mesulergine (1 nM), read-out: 5-HT2C pKi (converted)
T3 construct: purchased Euroscreen; host or cells: CHO-K1 cells
T3 sequence (P28335 33-458): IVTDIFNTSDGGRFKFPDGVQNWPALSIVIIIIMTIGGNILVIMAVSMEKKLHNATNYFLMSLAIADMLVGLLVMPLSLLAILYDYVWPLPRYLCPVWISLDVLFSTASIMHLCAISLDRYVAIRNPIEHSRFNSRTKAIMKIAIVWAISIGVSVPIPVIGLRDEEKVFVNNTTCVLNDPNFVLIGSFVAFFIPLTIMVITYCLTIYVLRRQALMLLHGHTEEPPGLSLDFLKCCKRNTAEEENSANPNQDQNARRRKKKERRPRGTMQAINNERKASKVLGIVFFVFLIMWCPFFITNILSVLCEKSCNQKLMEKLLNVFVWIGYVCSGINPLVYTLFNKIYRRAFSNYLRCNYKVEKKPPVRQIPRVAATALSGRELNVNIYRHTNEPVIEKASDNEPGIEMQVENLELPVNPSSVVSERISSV
Method: as §1
Membrane preparations from CHO-K1 cells expressing the cloned human 5-HT2C receptor were obtained (Euroscreen). The membranes were thawed rapidly and diluted in assay buffer containing Tris-HCl (50 mM, pH 7.7), ascorbic acid (0.1%) and pargyline (10 μM). The membranes were resuspended by homogenisation, prior to adding 6 μg of membranes to assay wells containing [^3H] mesulergine (1 nM), assay buffer (50 mM Tris at pH 7.7 and 0.1% ascorbic acid) containing pargyline (10 μM), and test compounds (1×10^−10 to 1×10^−4M). Non specific binding was determined in the presence of 100 μM mianserin. After 30 minutes incubation at 37° C., the assay mixture was filtered through a combination of GF-C and GF-B filters, pre-soaked in 1% bovine serum albumin, using a Brandel cell harvester, and were washed three times using ice cold Tris-HCl buffer (50 mM). Radioactivity retained on the filters was determined by liquid scintillation counting. For each test compound, the concentration that inhibited binding of [3H]mesulergine by 50% was determined using curve fitting software (Prism). Kd values (concentration of mesulergine required to occupy 50% of the receptor binding sites at equlibrium) determined from saturation binding studies were then used to calculate inhibition dissociation constants (Ki) using the following equation: […]

T1 sequence (P28223 whole entry): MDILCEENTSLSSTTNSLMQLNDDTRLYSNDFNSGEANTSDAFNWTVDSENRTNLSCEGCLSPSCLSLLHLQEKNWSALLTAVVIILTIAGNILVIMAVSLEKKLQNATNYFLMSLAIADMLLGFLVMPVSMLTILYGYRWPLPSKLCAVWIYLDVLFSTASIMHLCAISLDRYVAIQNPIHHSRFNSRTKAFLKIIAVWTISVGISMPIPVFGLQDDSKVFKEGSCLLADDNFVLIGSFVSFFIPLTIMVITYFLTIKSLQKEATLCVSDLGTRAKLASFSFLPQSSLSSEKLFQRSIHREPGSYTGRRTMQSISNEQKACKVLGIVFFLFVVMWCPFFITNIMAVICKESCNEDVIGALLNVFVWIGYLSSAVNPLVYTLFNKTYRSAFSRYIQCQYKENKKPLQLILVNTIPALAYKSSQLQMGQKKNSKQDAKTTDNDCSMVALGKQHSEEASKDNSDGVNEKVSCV

Row | Ki [1] | Ki [2] | Structure (SMILES) | Ki [3] | melting point
1 | > 10000 nM | < 1000 nM | CN(C)c1nc(-c2cccc3ccccc23)co1 [Compound 8, 2-dimethylamino-4-(naphth-1-yl)oxazole] | > 10000 nM | 30 to 32 °C
2 | > 10000 nM | < 10000 nM | N#Cc1ccc2cccc(-c3coc(N)n3)c2c1 [Compound 20, 4-(7-carbonitrile-naphthalen-1-yl)-oxazol-2-ylamine] | > 10000 nM | 
3 | > 10000 nM | < 10000 nM | N#Cc1cccc2c(-c3coc(N)n3)cccc12 [Compound 21, 4-(5-carbonitrile-naphthalen-1-yl)-oxazol-2-ylamine] | > 1000 nM | 
4 | > 1000 nM | < 10 nM | COc1ccc2ccccc2c1-c1oc(N)nc1C [Compound 26, 5-(2-methoxy-naphthalen-1-yl)-4-methyl-oxazol-2-ylamine] |  | 
5 | > 1000 nM | < 100 nM | Nc1nc(-c2c(O)ccc3ccccc23)co1 [Compound 22, 1-(2-amino-oxazol-4-yl)-naphthalen-2-ol] |  | 
6 | > 10000 nM | < 10000 nM | NC(=O)c1ccc2cccc(-c3coc(N)n3)c2c1 [Compound 24, 8-(2-amino-oxazol-4-yl)-naphthalene-2-carboxylic acid amide] | > 10000 nM | 
7 | > 10000 nM | < 1000 nM | CC(=O)Nc1nc(-c2cccc3ccccc23)co1 [Compound 9, 2-acetylamino-4-(naphth-1-yl)oxazole] | > 1000 nM | 188 to 190 °C
8 |  | < 1000 nM | COC(=O)COc1ccc2ccccc2c1-c1coc(N)n1 [Compound 23, [1-(2-amino-oxazol-4-yl)-naphthalen-2-yloxy]-acetic acid methyl ester] | > 10000 nM | 
9 |  | < 1000 nM | Nc1nc(-c2c(OCc3ccccc3)ccc3ccccc23)co1 [Compound 12, 4-(2-benzyloxy-naphthalen-1-yl)-oxazol-2-ylamine] |  | 

The remaining lines, values behind:

Row | Structure (SMILES) | Ki [1] | Ki [2] | Ki [3] | melting point
10 | Nc1nc(CO)c(-c2cccc3ccccc23)o1 [Compound 29, (2-amino-5-naphthalen-1-yl-oxazol-4-yl)-methanol] |  | < 100 nM | > 1000 nM | 
11 | Cc1c(-c2coc(N)n2)sc2ccccc12 [Compound 13, 4-(3-methyl-benzo[b]thiophen-2-yl)-oxazol-2-ylamine] | > 10000 nM | < 1000 nM | > 1000 nM | 
12 | Nc1nc(-c2ccc3c(c2)OCCO3)co1 [Compound 14, 4-(2,3-dihydro-benzo[1,4]dioxin-6-yl)-oxazol-2-ylamine] | > 10000 nM | < 1000 nM | > 10000 nM | 
13 | COc1ccc(-c2coc(N)n2)c2ccccc12 [Compound 11, 4-(4-methoxy-naphthalen-1-yl)-oxazol-2-ylamine] | > 10000 nM | < 100 nM | > 10000 nM | 
14 | CC(=O)OCc1nc(N)oc1-c1cccc2ccccc12 [Compound 28, acetic acid 2-amino-5-naphthalen-1-yl-oxazol-4-ylmethyl ester] | > 10000 nM | < 100 nM |  | 
15 | CCOc1ccc2ccccc2c1-c1coc(N)n1 [Compound 10, 4-(2-ethoxy-naphthalen-1-yl)-oxazol-2-ylamine] | > 1000 nM | < 10 nM | > 1000 nM | 
16 | Nc1nc(-c2cccc3c(Br)cccc23)co1 [Compound 19, 4-(5-bromo-naphthalen-1-yl)-oxazol-2-ylamine] | > 10000 nM | < 10000 nM | > 1000 nM | 
17 | Nc1nc(-c2cccc3ccc(Br)cc23)co1 [Compound 5, 2-amino-4-(7′-bromonaphth-1-yl)oxazole] | > 1000 nM | < 100 nM | > 1000 nM | 189 to 190 °C
18 | Cc1oc(N)nc1-c1cccc2ccccc12 [Compound 30, 5-Methyl-4-naphthalen-1-yl-oxazol-2-ylamine] | > 10000 nM | < 100 nM |  | 
19 | COc1c(-c2coc(N)n2)ccc2ccccc12 [Compound 18, 4-(1-methoxy-naphthalen-2-yl)-oxazol-2-ylamine] | > 10000 nM | < 1000 nM | > 10000 nM | 
20 | Nc1nc(-c2cccc3sccc23)co1 [Compound 15, 4-benzo[b]thiophen-4-yl-oxazol-2-ylamine] | > 1000 nM | < 1000 nM | > 1000 nM | 
21 | Nc1nc(-c2ccc(F)c3ccccc23)co1 [Compound 4, 2-amino-4-(4′-fluoronaphth-1-yl)oxazole] | > 1000 nM | < 100 nM | > 1000 nM | 171 to 174 °C

Reference: patent US7429607B2, “5-HT2B receptor antagonists” (Asterand UK Limited, priority 2002, dated 2008)
